Laboratory results reported in EP2686338B1, “FUNCTIONALIZED BIOMATERIALS FOR TISSUE REGENERATION” (Nanomed3d S.r.l., priority 2011, dated 2018).
“Also recorded” adds a separate entry of the source. Residues, ends and D or L forms follow the SMILES beside them.

What was measured:
mouse NSC = test: NSC differentiation on exposure to soluble heptapeptides (immunofluorescence); format: cell-based; conditions: 12 DIV; peptide 0.1 mg/ml in media; Cultrex and Laminin coated wells; vs untreated NSCs, p<0.05
Experimental: In vitro tests were performed as previously described (8), in order to assess whether the heptapeptides obtained of the present invention influence NSCs differentiation.
Murine cells (at a concentration of 2x10^4 cells/cm^2) were seeded in each well (96 multi-well plate) previously coated with Cultrex-BME® substrate (R&D systems) (1:100 dilution in basal medium, overnight incubation) or with Laminin (Roche) (1:5 dilution in PBS 1x, pH 7.4, overnight incubation).
Initially, cells were cultured with basal medium supplemented with βFGF (10 ng/ml), added to enhance neuronal progeny differentiation. At 3 days in vitro (DIV), βFGF medium was replaced with Leukemia Inhibitory Factor (LIF, Chemicon) (20 ng/ml) and Brain Derived Neurotrophic Factor (BDNF, Peprotech) (20 ng/ml). Fresh medium was added every three days. The chosen peptides were dissolved in all cell culture media (but not in the coatings) at a concentration of 0.1 mg/ml.
Immunofluorescence tests were performed for assaying the phenotypes of the differentiated murine NSC progenies. The following antibodies were used: rabbit polyclonal against GFAP (1:500, DakoCytomation) for astrocytes and mouse monoclonal against βIII-Tubulin (1:500, Covance) for neurons. Secondary Abs were Goat anti Mouse Alexa 488 (1:1000, Molecular Probes), Goat anti Mouse Cy3 (1:1000, Jackson Immunoresearch), Cell nuclei were counterstained with DAPI (Molecular Probes). Quantitative analyses were performed by counting 100-300 cells for each of 9 randomly chosen fields over a total of 3 independent experiments.
Values, reported as means ± standard error of the mean (Figure 1A).

human NSCs [1] = test: Immunofluorescence of differentiated NSC progeny on scaffolds, human NSCs; format: cell-based; conditions: 1% scaffold; compared to Cultrex positive control
Experimental: (§1) In vitro tests were performed as previously described (8), in order to assess whether the biomaterials (assembled hydrogels) obtained with the SAPs of the present invention influenced NSCs adhesion, survival and/or differentiation. SAPeptides (30 µl for each well at a concentration of 10 mg/ml) were assembled into 96 multiwells two hours before cell. Cells (at a concentration of 2x10^4 cells/cm^2) were seeded on the top-surface of each assembled scaffold. Initially, cells were cultured with basal medium supplemented with βFGF (10 ng/ml), added to enhance neuronal progeny differentiation. At 3 days in vitro (DIV), βFGF medium was replaced with Leukemia Inhibitory Factor (LIF, Chemicon) (20 ng/ml) and Brain Derived Neurotrophic Factor (BDNF, Peprotech) (20 ng/ml). Fresh medium was added every three days. For both viability and differentiation assays positive and negative controls consisted of Cultrex-BME® substrate (R&D systems) (1:100 dilution in basal medium) and untreated bottom well surfaces respectively. Cell viability was quantified via CellTiter 96® Aqueous Proliferation Assay (Promega) at 7 DIV as recommended in the Promega protocol. After calibrating the linear response between the cell number and absorbance values, proliferated cell populations were quantified (n=5) by using a Vmax microplate reader (Molecular Devices) at 490nm wavelength. Values, reported as means ± standard error of the mean, were blanked to their respective controls consisting of same substrates and cell culture media without cells.
Immunofluorescence tests were performed for assaying the phenotypes of the differentiated human and murine NSC progenies. In the case of KLP and Ac-KLP just murine NSC have been used. Ac-KLP and KLP scaffolds were prepared at different concentrations in order to display three different stiffness values (viz. 100, 500 and 1000 Pa). This was done to assess the influence of scaffold concentration (and consequently its stiffness) over NSC differentiation. All the other peptides were tested at 1% v/w concentration instead. The following antibodies were used: rabbit polyclonal against GFAP (1:500, DakoCytomation) for astrocytes, mouse monoclonal against βIII-Tubulin (1:500, Covance) for neurons, mouse monoclonal against GalC (1:200, Chemicon) and O4 (1:200, Chemicon) for oligodendrocyes. Secondary Abs were Goat anti Mouse Alexa 488 (1:1000, Molecular Probes), Goat anti Mouse Cy3 (1:1000, Jackson Immunoresearch), Goat anti Rabbit Cy3 (1:1000, Jackson Immunoresearch). […] Quantitative analyses were performed by counting 100-300 cells for each of 9 randomly chosen fields over a total of 3 independent experiments. Phase contrast and fluorescence images of the adhering cells were acquired via Zeiss microscopes Axioplan 2 and ApoTome System at one week after seeding.

[2] = system: acute contusive spinal cord injury (SCI); test: Acute contusive spinal cord injury model, histology and morphometrical quantification; format: in vivo, Sprague-Dawley rats; conditions: 8 weeks after injury
Experimental: (§2) 20 female Sprague-Dawley rats weighting 200-250 gr (Charles River Laboratories) were randomly divided into two groups: 1) spinal cord injured animals treated with Ac-FAQ and 2) spinal cord injured animals treated with the saline solution (control group). Rats were anesthetized with an intraperitoneal injection of ketamine (80 mg/kg) and xylazine (10 mg/kg). After laminectomy at the T9-T10 level, the exposed spinal cord was lesioned (Figure 8A1) by a 10-gram rod dropped from a height of 25 mm by using a MASCIS Impactor device (WM Keck Center for Collaborative Neuroscience, Rutgers University), as previously described 33. Immediately after injury, animals were injected with Ac-FAQ (1% acqueous solution) or the saline solution using an Hamilton syringe held via a micromanipulator (Figure 8A2). The biomaterial or the distilled water was delivered into the lesion site at distances of 500 µm, and at each interval two injections of 0,5 µl each were made, for a total dose of 3 µl. After injection, the muscles were sutured and the skin was closed with wound clips. […]
Quantitative analysis was performed on longitudinal sections of rat spinal cords, spanning between T7 and T12 and including the injury site (T9-T10).
The presence of axons expressing Gap-43 and βIII within the cyst was investigated. Gap-43 positive fibers were quantified and the relative value of GAP-43 immunopositive area was expressed as percentage of the total cyst area.
Injured tissue was quantified in seven-to-sixteen longitudinal sections per animal, depending on the cyst extent. […] Sections were stained with hematoxylin/eosin and images were captured (Axioplan2 Zeiss microscope) at 5x magnification, then single images were merged, converted into binary pictures and cavities into the injured area were quantified via Image J software (http://rsb.info.nih.gov/ij/). We measured also the whole injured tissue size. […]
Axon regeneration/sprouting, into the cyst area, was quantified on six longitudinal sections (spaced 160 µm) per animal via GAP-43 (1:200, Millipore) and Cy3-conjugated antibodies (1:1000, Jackson). […]

[3] = system: acute contusive spinal cord injury (SCI); test: Acute contusive spinal cord injury model, BBB locomotor rating; format: in vivo, Sprague-Dawley rats
Experimental: as §2
Hindlimb recovery was assessed by using the Basso, Beattie, Bresnahan (BBB) Locomotor Rating Scale. Starting from 1 week post-injury, every 3-4 days each rat was observed and recorded with a digital video camera for 4 min in an open field. Rats were evaluated in double-blind experimental settings. […]

murine NSCs [4] = test: Immunofluorescence of differentiated NSC progeny on scaffolds, murine NSCs; format: cell-based; conditions: 1% scaffold; compared to Cultrex positive control
Experimental: as §1
Immunofluorescence tests were performed for assaying the phenotypes of the differentiated human and murine NSC progenies. In the case of KLP and Ac-KLP just murine NSC have been used. Ac-KLP and KLP scaffolds were prepared at different concentrations in order to display three different stiffness values (viz. 100, 500 and 1000 Pa). This was done to assess the influence of scaffold concentration (and consequently its stiffness) over NSC differentiation. All the other peptides were tested at 1% v/w concentration instead. The following antibodies were used: rabbit polyclonal against GFAP (1:500, DakoCytomation) for astrocytes, mouse monoclonal against βIII-Tubulin (1:500, Covance) for neurons, mouse monoclonal against GalC (1:200, Chemicon) and O4 (1:200, Chemicon) for oligodendrocyes. Secondary Abs were Goat anti Mouse Alexa 488 (1:1000, Molecular Probes), Goat anti Mouse Cy3 (1:1000, Jackson Immunoresearch), Goat anti Rabbit Cy3 (1:1000, Jackson Immunoresearch). Cell nuclei were counterstained with DAPI (Molecular Probes). Quantitative analyses were performed by counting 100-300 cells for each of 9 randomly chosen fields over a total of 3 independent experiments. Phase contrast and fluorescence images of the adhering cells were acquired via Zeiss microscopes Axioplan 2 and ApoTome System at one week after seeding.

human NSCs [5] = test: Imaging and cell proliferation (MTS) assay on assembled scaffolds, human NSCs; format: cell-based
Experimental: as §1

[6] = Rheology (frequency, time and strain sweeps); format: physicochemical
Experimental: Rheological properties of the self-assembling peptides of the invention were determined using a controlled stress TA Instruments AR-2000ex rheometer (TA Instruments). A cone-and-plate geometry (acrylic cone diameter, 20 mm; angle, 1°; truncation gap 34 µm) was used. Preliminary strain sweeps were performed for each sample to define the linear viscoelastic region, thus ensuring that moduli were independent of strain. Time sweeps, after addition of PBS (1x) were recorded at 25 C (angular frequency ω=1 Hz) and continued till G' plateaued. Frequency sweeps, both for peptide water solutions and for self-assembled scaffolds, were performed at 25 C with the instrument in oscillatory mode at controlled strain of 1 %. Final strain sweeps was performed at 1Hz oscillatory frequency and at 25 C: onset point of failure was calculated by linear interpolation and subsequent determination of the intersection of the G' modes within the linear region and at material failure respectively.

murine NSCs [7] = test: Imaging and cell proliferation (MTS) assay on assembled scaffolds, murine NSCs; format: cell-based
Experimental: as §1

CC[C@H](C)[C@H](NC(=O)[C@H](C)NC(=O)[C@@H](N)Cc1c[nH]cn1)C(=O)N[C@@H](Cc1ccc(O)cc1)C(=O)N1CCC[C@H]1C(=O)N[C@@H](CCCNC(=N)N)C(=O)N[C@@H](Cc1c[nH]cn1)C(N)=O [#HAI, NH2-HAIYPRH-CONH2]
percentage of differentiated neurons (Beta III Tubulin staining) (mouse NSC): significant increase

CC(=O)N[C@@H](Cc1ccccc1)C(=O)N[C@@H](C)C(=O)N[C@@H](CCC(N)=O)C(=O)N[C@@H](CCCNC(=N)N)C(=O)N[C@H](C(=O)N1CCC[C@H]1C(=O)N1CCC[C@H]1C(=O)NCC(=O)NCC(=O)NCC(=O)N[C@@H](CC(C)C)C(=O)N[C@@H](CC(=O)O)C(=O)N[C@@H](CC(C)C)C(=O)N[C@@H](CCCCN)C(=O)N[C@@H](CC(C)C)C(=O)N[C@@H](CC(=O)O)C(=O)N[C@@H](CC(C)C)C(=O)N[C@@H](CCCCN)C(=O)N[C@@H](CC(C)C)C(=O)N[C@@H](CC(=O)O)C(=O)N[C@@H](CC(C)C)C(=O)N[C@@H](CCCCN)C(N)=O)C(C)C [Ac-FAQ, Ac-FAQRVPP-GGG-LDLKLDLKLDLK-CONH2] (Ac-FAQRVPPGGGLDLKLDLKLDLK-NH2)
number of neurons (human NSCs [1]): significantly higher
number of oligodendrocytes (human NSCs [1]): significantly higher
Average cumulative cyst area ([2]; hematoxylin/eosin longitudinal sections, not significant vs controls): 28.30 ± 6.70 mm^2
cavities size within the cyst, excluding strands of trabeculae ([2]; not significant vs control): 16.77 ± 4.50 mm^2
average immunopositivity for GAP-43 ([2]; p<0.05 vs saline-injected controls): 15.46 ± 1.94 % of the whole cyst area
BBB score ([3]; 1% aqueous solution, 3 µl into lesion site right after injury, week 6,7 and 8 after injury, mean ± SEM): 11.95 ± 0.30
hindlimb motor recovery in comparison to controls ([3]; BBB scale, from week 6 after injury, p<0.05): significant improvement; also recorded: significantly improved locomotor recovery
number of neurons (murine NSCs [4]): significantly higher
number of oligodendrocytes (murine NSCs [4]): significantly higher
cell morphology, adhesion and spreading (human NSCs [5]; 7 DIV on assembled hydrogels): spread and branched cells
cell viability (MTS, cell population) (human NSCs [5]; 7 DIV, scaffolds 10 mg/ml, vs control, P<0.03, n=5): cell population was bigger
G' pre-assembling ([6]; average storage modulus of SAPeptide solution, 1% w/v, 1-100 Hz, before PBS): 5.11 Pa
G' post-assembling ([6]; average storage modulus of jellified scaffold, 1% w/v, 1-100 Hz, after PBS): 551.9 Pa
Onset point (% strain) ([6]; strain percentage at rupture, strain sweep at 1 Hz, 25 C): 22.75%
cell morphology, adhesion and spreading (murine NSCs [7]; 7 DIV on assembled hydrogels): spread and branched cells
cell viability (MTS, cell population) (murine NSCs [7]; 7 DIV, scaffolds 10 mg/ml, vs control, P<0.005, n=5): cell population was bigger

CC(C)C[C@H](NC(=O)[C@@H]1CCCN1C(=O)[C@H](C)NC(=O)[C@H](CCCNC(=N)N)NC(=O)[C@@H](NC(=O)[C@H](CCC(=O)O)NC(=O)CN)[C@@H](C)O)C(N)=O [#GET, NH4-GETRAPL-CONH2] (H-GETRAPL-NH2)
percentage of differentiated neurons (Beta III Tubulin staining) (mouse NSC): significant increase

CC(C)C[C@H](NC(=O)[C@@H](N)CCCCN)C(=O)N1CCC[C@H]1C(=O)NCC(=O)N[C@@H](Cc1c[nH]c2ccccc12)C(=O)N[C@@H](CO)C(=O)NCC(N)=O [#KLP, NH2-KLPGWSG-CONH2] (H-KLPGWSG-NH2)
percentage of differentiated neurons (Beta III Tubulin staining) (mouse NSC): significant increase; also recorded: Highest increase of the neuronal phenotype
